Values of other authors, collected in patent US5716935A, “Use of antiotensin II analogs in tissue repair” (University of Southern California, priority 1996, dated 1998).

Assays:
[1] = test system: aminopeptidase; details: reported in literature
[2] = test system: wound tissue; details: applied to wound tissue; U.S. Pat. No. 5,015,629

cleavage by aminopeptidase [1] | Compound | rate of wound healing [2]
resistant | CC[C@H](C)[C@H](NC(=O)[C@H](Cc1ccc(O)cc1)NC(=O)[C@@H](NC(=O)[C@H](CCCNC(=N)N)NC(=O)CNC)C(C)C)C(=O)N[C@@H](Cc1cnc[nH]1)C(=O)N1CCC[C@H]1C(=O)N[C@@H](Cc1ccccc1)C(=O)O [Analog 4, Sar-Arg-Val-Tyr-Ile-His-Pro-Phe] | –
– | Asp-Arg-Val-Tyr-Ile-His-Pro-Phe [angiotensin II, octapeptide present in humans and other species; known pressor agent] | significantly increases
